Laboratory results from patent US11123292B2, “Use of biocompatible microdroplets for the treatment of atherosclerosis, heart disease and stroke” (priority 2014, dated 2021).
Where two headings read alike, the source gives them in different places.

Key:
[1] = Relative Energy Difference (RED) with cholesterol, calculated from HSP; settings: for Relative Energy Difference (RED) with cholesterol: RED=Ra/Ro, Ro of cholesterol 12.6; for Ra^2 versus cholesterol: Eq. 1
Method: The extent to which two compounds will dissolve each other can be quantified using the equations developed by Hansen: (Ra)^2=4(δd2−δd1)^2+(δp2−δp1)^2+(δh2−δh1)^2 Eq. (1) RED=Ra/Ro Eq. (2)
Equation 1 calculates the relative magnitude difference of the three Hansen parameters of the two compounds to arrive at Ra. […] Equation 2 allows one to calculate the Relative Energy Difference (RED) of the solvent and the material we are trying to dissolve, by dividing Ra by Ro. Ra was calculated in Equation 1 and measures the magnitude of the difference of the HSP values of the two compounds. The units for the HSP parameters δd, δp, δh are MPa^1/2. […] The Relative Energy Difference (RED) is a dimensionless number which quantifies how well a solvent will dissolve a solute. For an RED>>1 the compounds will not dissolve. For an RED˜1, there will be some dissolution. For an RED<1 there will be a considerable amount of dissolution. Essentially, the smaller RED value, the more solute will dissolve into the solvent, with RED=1 being a threshold where a given solute is starting to be soluble in a given solvent.
Referring now to FIG. 6, this diagram provides a flow chart showing how the biocompatible microdroplet solvent emulsion can be formulated. […] For an example of compounds which might be included in 400, please refer to Tables 1, 2, 3 and 4. However, this list of tables is by no means exhaustive and other compounds could be added to this list. The number of compounds selected can comprise of 1, 2, 3 or as many as are deemed necessary, which is symbolized by the variable n. The HSP parameters of a homogenous mixture of compounds are the weighted average of the HSP parameters of the individual components. […] Ideally, it is possible to formulate a solution such that the resultant RED of the mixture is smaller than the RED of any of the individual components.
The δdm, δpm, δhm calculated using Eq. 9 are the Hansen solubility parameters of the homogenous mixture, where m denotes mixture, and fi depicts the fraction of each of the n components used to fabricate the biocompatible solvent. Equation 10 can be used to calculate the RED of the final mixture, where Ro is the interaction radius of the cholesterol, or other component of arterial plaque one desires to dissolve using the biocompatible microdroplets and […] represents the Hansen solubility constants of cholesterol (dispersion, polar and hydrogen bonding components) or the HSP parameter of the arterial plaque which is being targeted.

[2] = cited from earlier work
[3] = single compound; cited from earlier work
[4] = cited from earlier work; remark: listed apart in the source
[5] = cited from earlier work; for LD50 dose: route not stated
[6] = Dissolving cholesterol by microdroplets in whole blood; settings: whole blood
Description: (§1) To effectively dissolve arterial plaque in-vivo it is very important that the biocompatible solvent be sufficiently insoluble in blood to allow a small discrete microdroplet to travel through the blood stream, from the injection point, to the plaque which is being treated. If the biocompatible solvent dissolves within the blood, such as an alcohol, the solubility parameters of the resultant mixture will be very nearly identical to that of blood and will not dissolve cholesterol or arterial plaque. Conversely, if a discrete microdroplet of the biocompatible solvent makes contact with the plaque, then the cholesterol molecule in the plaque will be surrounded by multiple molecules of the biocompatible solvent, which have similar solubility parameters as the cholesterol, and the cholesterol will be drawn away from the plaque and into the droplet. […] An organic salt, Esters, an organo-metallic compound could also be used as the main component or an addition to the biocompatible microdroplet solvent means. Essentially any organic molecule which can be administered intravenously with acceptable side effects, is sufficiently insoluble in blood to travel as a discrete microdroplet without being dissolved prior to reaching arterial plaque and which is capable of dissolving cholesterol, cholesterol esters or other materials within the arterial plaque, could potentially be used.
(§2) 1,8-cineole is classified as a cyclic ether and a monoterpenoid. […] This chemical gives certain fruits such as apples and strawberries their fruity taste, and is used as an additive in bubble gums for this purpose. […] It is used as a fragrance or flavouring agent. […] It is produced natuarally by the organism, and is found in abundance in shark liver oil.

[7] = Water insoluble solvents tested for dissolving cholesterol / arterial plaque; settings: medium not stated
Description: as §1

[8] = Dissolving cholesterol by microdroplets in a dilute solution in water
Description: as §2

| SMILES | Relative Energy Difference (RED) with cholesterol [1] | δd London dispersion HSP parameter [3] | δh hydrogen bonding HSP parameter [3] | δp polarity HSP parameter [3] | efficacy of microdroplets at dissolving cholesterol in whole blood [6] | other results |
| --- | --- | --- | --- | --- | --- | --- |
| CC(=O)c1ccccc1 [Acetophenone] | 0.66 | 19.6 MPa^1/2 | 3.7 MPa^1/2 | 8.6 MPa^1/2 | – | solubility in water / water based blood ([2]; in words): somewhat soluble in water |
| O=C(O)c1ccccc1 [Benzoic acid] | – | – | – | – | – | time to excretion in the urine ([4]; after ingestion): ≤ 24 h |
| O=C(OCc1ccccc1)c1ccccc1 [Benzyl benzoate] | – | 20 MPa^1/2 | 5.2 MPa^1/2 | 5.1 MPa^1/2 | – | Ra^2 versus cholesterol [1]: 24; LD50 dose [5]: 1.68 g/kg |
| Cc1ccc(C(C)C)cc1O [Carvacrol] | 0.64 | 16.5 MPa^1/2 | 11.4 MPa^1/2 | 3.2 MPa^1/2 | excellent results | solubility in water / water based blood [2]: insoluble in water |
| CCOC(=O)OCC [Diethyl carbonate] | – | 16.6 MPa^1/2 | 6.1 MPa^1/2 | 3.1 MPa^1/2 | – | LD50 ([5]; oral): 8500 mg/kg |
| c1ccc(Oc2ccccc2)cc1 [Diphenyl ether] | 0.32 | 19.5 MPa^1/2 | 5.8 MPa^1/2 | 3.4 MPa^1/2 | excellent results | Ra^2 versus cholesterol [1]: 17; excreted in the urine ([4]; once absorbed): 90%; LD50 dose [5]: 2.85 g/kg of body weight |
| CC/C=C\C/C=C\C/C=C\C/C=C\C/C=C\CCCC(=O)O [Elcosapentaenoic acid] | – | – | – | – | – | result of solvent testing (dissolving cholesterol) [7]: very promising results |
| C=C(C)[C@H]1CC=C(C)CC1 [Limonene] | – | 17.2 MPa^1/2 | 4.3 MPa^1/2 | 1.8 MPa^1/2 | the cholesterol sample seemed to accumulate precipitate and swell | dissolving cholesterol in a dilute solution in water [8]: dissolved cholesterol |
| CCCCC/C=C\C/C=C\CCCCCCCC(=O)O [Linoleic acid] | – | – | – | – | – | result of solvent testing (dissolving cholesterol) [7]: very promising results |
